The term IC50 denotes the concentration at which inhibition is half-maximal. For orientation: inhibition means the share of the control response that was lost under treatment.

Entries after “also recorded” stand apart in the source; their conditions may differ.

Experimental findings from paper PMC2804029 (Journal of medicinal chemistry, 2010) are described below.

Assay [1] concerns the target T1, B. anthracis DHPS (Bacillus anthracis, UniProt Q81VW8). The experiment in a line: biochemical. The assay is classed as biochemical.
The target in assay [2] is T1, B. anthracis DHPS. The assay is classed as binding.

T1 sequence (Q81VW8 1-280): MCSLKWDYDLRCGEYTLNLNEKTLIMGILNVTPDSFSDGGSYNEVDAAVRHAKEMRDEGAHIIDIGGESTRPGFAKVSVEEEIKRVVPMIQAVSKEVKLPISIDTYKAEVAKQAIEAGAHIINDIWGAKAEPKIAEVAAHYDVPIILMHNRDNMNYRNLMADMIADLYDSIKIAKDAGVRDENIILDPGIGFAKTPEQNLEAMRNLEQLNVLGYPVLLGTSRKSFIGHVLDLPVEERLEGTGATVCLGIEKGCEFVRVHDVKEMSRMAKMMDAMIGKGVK

For the molecule `Nc1nc2[nH]c(S)nc2c(=O)[nH]1` [Compound 5], on B. anthracis DHPS [1], the “percentage inhibition of DHPS” value is recorded as “did not show inhibition; also recorded: little or no inhibition”.
On B. anthracis DHPS [1], `Nc1nc2c(c(=O)[nH]1)N=C(CO)CN2` [Control, 6-hydroxymethyl-7,8-dihydropterin] registered an IC50 of 58.4 µM. At B. anthracis DHPS [1] (read-out: B. anthracis % inhibition), the inhibition at 250 µM was determined as 60%.
Consider `Nc1ccc(C(=O)O)cc1` [pABA, p-aminobenzoic acid], for which the “binding (heats of binding) by ITC” value on B. anthracis DHPS [2] is on record as “does not bind; also recorded: No heats of binding could be detected”.
